From publication PMC3521961, “Molecular Basis for Recognition of Dilysine Trafficking Motifs by COPI” (Developmental Cell, 2012)
Substitutions are numbered along the chain they refer to. Entries after “also recorded” stand apart in the source; their conditions may differ. Each block holds one molecule with its values, some of them ahead of it. No end group written: not given here.

Key:
[1] = target: T1, yeast β'-COP 1-304 (N-terminal WD-repeat domain), wild-type (Saccharomyces cerevisiae, UniProt P41811); test: ITC of dilysine motif peptides with wild-type β'1-304; type: binding; details: for binding by ITC (in words): 10°C, 50 mM HEPES pH 7.4, 100 mM NaCl, at least three runs
T1 construct: GST (thrombin-cleavable) (C, cleaved yes); made in house; host or cells: E. coli BL21(DE3)pLysS
T1 sequence (P41811 1-304): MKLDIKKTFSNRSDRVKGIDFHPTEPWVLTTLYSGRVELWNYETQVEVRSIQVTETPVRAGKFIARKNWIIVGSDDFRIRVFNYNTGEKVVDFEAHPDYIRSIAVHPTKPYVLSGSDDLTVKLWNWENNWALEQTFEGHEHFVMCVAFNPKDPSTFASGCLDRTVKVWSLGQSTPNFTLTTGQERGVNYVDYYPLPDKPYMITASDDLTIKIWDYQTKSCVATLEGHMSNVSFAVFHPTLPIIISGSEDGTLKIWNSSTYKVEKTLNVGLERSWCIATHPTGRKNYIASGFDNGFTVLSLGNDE
Procedure: (§1) Isothermal titration calorimetry
equilibrium association constant (Ka), and enthalpy of binding. All experiments were carried out
100 mM NaCl to mimic physiological salt conditions. Wild type yeast α-COP (α1-327) was gel
Immediately prior to a run, the protein was
mM NaCl than at 100 mM NaCl.
and ultraviolet absorbance (Agilent 1200 UV, Agilent Technologies). Samples of β’1-304 or 1-
the construct lacks the α-solenoid domain. […]

[2] = target: β'-COP D206A E248A mutant (β'1-304) (Saccharomyces cerevisiae, UniProt P41811, D206A/E248A); test: biochemical
Procedure: (§2) The β'-COP R15A K17A R59A mutant was designed to disrupt binding to the carboxy terminus of the motif, and the D206A E248A mutant was intended to disrupt binding to the -3 lysine.
(§3) ITC experiments were conducted on a Microcal VP-ITC machine (GE Healthcare) at 10°C. Molar peptide concentration in the syringe was ten times that of protein in the cell. β'-COP constructs were gel filtered into 50 mM HEPES (pH 7.4) and 100 mM NaCl, and α-COP constructs were gel filtered into 50 mM HEPES (pH 7.4) and 300 mM NaCl prior to runs. Titration data were analyzed in ORIGIN to obtain values for stoichiometry (N), equilibrium association constant (Ka), and enthalpy of binding. All experiments were carried out at least three times with appropriate standard deviations reported.
(§4) Homology model of the α-COP N-terminal propeller
as §1

[3] = target: β'-COP R15A K17A R59A mutant (β'1-304) (Saccharomyces cerevisiae, UniProt P41811, K17A/R15A/R59A); test: biochemical
Procedure: as §2, §3, §4, §1

[4] = target: β'-COP D98A D117A mutant (β'1-304) (Saccharomyces cerevisiae, UniProt P41811, D117A/D98A); test: biochemical
Procedure: as §2, §3, §4, §1

[5] = system: α-COP D229A E273A mutant (α1-327); test: ITC with α1-327 D229A E273A mutant; type: binding, yeast; details: 10°C, 300 mM NaCl
Procedure: as §3
(§5) Figure S3, related to Figure 2. Model and in vitro data of α-COP 1-327 binding to a KKxx
(§6) motif. A homology model of residues 1-327 of yeast α-COP binding to the KKTN motif from
(§7) (1 picture or pasted object on this page, not shown here)
as §4, §1

[6] = system: α-COP D96A D115A mutant (α1-327); test: ITC with α1-327 D96A D115A mutant; type: binding, yeast; details: 10°C, 300 mM NaCl
Procedure: as §3, §5, §6, §7, §4, §1

[7] = system: α-COP R13A K15S R57S mutant (α1-327); test: ITC with α1-327 R13A K15S R57S mutant; type: binding, yeast; details: 10°C, 300 mM NaCl
Procedure: as §3, §5, §6, §7, §4, §1

[8] = target: T2, yeast β'-COP 1-304 (N-terminal WD-repeat domain), untagged (yeast (S. cerevisiae), UniProt P41811 1-304); test: ITC; Microcal VP-ITC, 10°C; peptide in the syringe, protein in the cell; 50 mM Hepes pH 7.4, 100 mM NaCl; details: both partners purified
T2 construct: source: E. coli BL21(DE3)pLysS, purified (glutathione sepharose, thrombin cleavage, S200 gel filtration); not shown: GST, C-terminal, cleaved
T2 sequence (looked up): T1 sequence (P41811 1-304)

[9] = target: T3, yeast α-COP 1-327 (N-terminal WD-repeat domain), wild type (yeast (S. cerevisiae), UniProt P53622 1-327); test: ITC; Microcal VP-ITC, 10°C, 35 injections of 8 µL; peptide in the syringe at ten times the molar concentration of the protein in the cell; α-COP desalted into 20 mM Hepes pH 7.4, 300 mM NaCl (high salt required for stability); details: both partners purified
T3 construct: α-COP (Ret1), yeast, residues 1-327, N-terminal WD-repeat domain; also called α1-327; Wild type A327; source: E. coli BL21(DE3)pLysS, purified (glutathione sepharose, thrombin cleavage, S200 gel filtration); not shown: GST, C-terminal, cleaved
T3 sequence (looked up): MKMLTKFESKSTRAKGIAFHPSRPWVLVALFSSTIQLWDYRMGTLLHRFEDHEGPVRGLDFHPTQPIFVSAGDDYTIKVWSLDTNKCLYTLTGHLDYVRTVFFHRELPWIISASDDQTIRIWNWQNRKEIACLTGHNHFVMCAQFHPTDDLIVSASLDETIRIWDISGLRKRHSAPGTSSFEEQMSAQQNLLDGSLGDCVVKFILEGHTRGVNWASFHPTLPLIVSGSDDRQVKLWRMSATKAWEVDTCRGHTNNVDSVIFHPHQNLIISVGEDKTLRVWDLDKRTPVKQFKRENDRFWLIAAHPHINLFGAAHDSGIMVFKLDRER

[10] = target: T4, yeast β'-COP 1-604 (both WD-repeat domains) (yeast (S. cerevisiae), UniProt P41811 1-604); test: crystal structure; β'1-604 (10 mg/ml) with CTFKTKTN (30 mg/ml, mixed 1:10); 0.1 M bicine (pH 9.0), 10% MPD; space group P3(1), twinned; details: both partners purified
T4 construct: constructs are in the Supplemental Experimental Procedures
T4 sequence (looked up): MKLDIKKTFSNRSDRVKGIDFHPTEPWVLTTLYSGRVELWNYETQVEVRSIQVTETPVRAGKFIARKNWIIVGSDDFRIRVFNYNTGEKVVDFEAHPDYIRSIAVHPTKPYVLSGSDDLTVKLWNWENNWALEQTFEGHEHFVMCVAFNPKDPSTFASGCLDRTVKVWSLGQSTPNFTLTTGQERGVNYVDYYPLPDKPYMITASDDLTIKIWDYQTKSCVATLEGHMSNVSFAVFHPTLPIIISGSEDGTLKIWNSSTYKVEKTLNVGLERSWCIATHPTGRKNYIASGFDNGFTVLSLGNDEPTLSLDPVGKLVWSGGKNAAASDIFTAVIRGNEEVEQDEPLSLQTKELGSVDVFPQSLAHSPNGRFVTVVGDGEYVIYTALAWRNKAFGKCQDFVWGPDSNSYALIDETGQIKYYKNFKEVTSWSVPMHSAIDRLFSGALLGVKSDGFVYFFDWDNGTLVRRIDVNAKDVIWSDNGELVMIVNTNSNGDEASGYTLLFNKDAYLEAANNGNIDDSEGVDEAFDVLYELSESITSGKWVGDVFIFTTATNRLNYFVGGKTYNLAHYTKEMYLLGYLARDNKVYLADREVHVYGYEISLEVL

[11] = target: T5, yeast β'-COP 1-304 (N-terminal WD-repeat domain), untagged, wild type (yeast (S. cerevisiae), UniProt P41811 1-304); test: crystal structure; β'1-304 (10 mg/ml) with CTFKTKTN (30 mg/ml, mixed 1:10); 0.1 M HEPES (pH 7.5), 0.5 M ammonium sulfate, 30% v/v MPD; space group P6(1); details: both partners purified
T5 construct: also called β'-COP N-terminal WD-repeat domain
T5 sequence (looked up): T1 sequence (P41811 1-304)

[12] = target: T5, yeast β'-COP 1-304 (N-terminal …); test: ITC; Microcal VP-ITC, 10°C; peptide in the syringe at ten times the molar concentration of the β'-COP construct in the cell; 50 mM HEPES (pH 7.4), 100 mM NaCl; details: both partners purified
[13] = target: T6, yeast β'-COP 1-304 R15A K17A R59A (yeast (S. cerevisiae), UniProt P41811 1-304, R15A | K17A | R59A); test: as above; details: both partners purified
T6 construct: constructs are in the Supplemental Experimental Procedures; also called β'-COP R15A K17A R59A mutant
T6 sequence (looked up): T1 sequence (P41811 1-304) with R15A, K17A, R59A

[14] = target: T7, yeast β'-COP 1-304 D98A D117A (yeast (S. cerevisiae), UniProt P41811 1-304, D98A | D117A); test: as above; details: both partners purified
T7 construct: constructs are in the Supplemental Experimental Procedures; also called D98A D117A mutant
T7 sequence (looked up): T1 sequence (P41811 1-304) with D98A, D117A

[15] = target: T8, yeast β'-COP 1-304 D206A E248A (yeast (S. cerevisiae), UniProt P41811 1-304, D206A | E248A); test: as above; details: both partners purified
T8 construct: constructs are in the Supplemental Experimental Procedures; also called D206A E248A mutant
T8 sequence (looked up): T1 sequence (P41811 1-304) with D206A, E248A

[16] = target: T5, yeast β'-COP 1-304 (N-terminal …); test: crystal structure; β'1-304 (untagged) with CTFKKTN; details in the Supplemental Experimental Procedures; details: both partners purified

Chain of β'-COP D206A E248A mutant (β'1-304) (P41811 1-304 D206A/E248A): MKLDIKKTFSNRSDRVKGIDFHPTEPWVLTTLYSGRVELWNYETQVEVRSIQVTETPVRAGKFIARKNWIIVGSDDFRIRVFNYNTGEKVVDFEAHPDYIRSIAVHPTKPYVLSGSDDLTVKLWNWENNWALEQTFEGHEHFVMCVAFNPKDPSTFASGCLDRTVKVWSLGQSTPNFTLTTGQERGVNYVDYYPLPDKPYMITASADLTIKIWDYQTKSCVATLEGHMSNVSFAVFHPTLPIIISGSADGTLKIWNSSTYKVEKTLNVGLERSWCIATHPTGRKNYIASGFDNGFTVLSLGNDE
Chain of β'-COP R15A K17A R59A mutant (β'1-304) (P41811 1-304 R15A/K17A/R59A): as the sequence (P41811 1-304 D206A/E248A) above, with R15A, K17A, R59A, A206D, A248E counted along it
Chain of β'-COP D98A D117A mutant (β'1-304) (P41811 1-304 D98A/D117A): as the sequence (P41811 1-304 D206A/E248A) above, with D98A, D117A, A206D, A248E counted along it

Molecule: KKLIE [KKLIE peptide from p23]
binding by ITC (in words) [1]: no measurable binding; also recorded: does not bind

Molecule: RQEIIKTKLL [KTKLL]
Kd [2]: < 300 µM | Kd [3]: < 300 µM | Kd [4]: < 300 µM | measured KD at 300 mM NaCl relative to 100 mM NaCl ([1]; ITC control runs in 300 mM NaCl compared to 100 mM NaCl): four- to five-fold weaker

Molecule: CTFKKTN-OH [KKTN]
binding by ITC (in words) [5]: no measurable binding | binding by ITC (in words) [6]: no measurable binding | binding by ITC (in words) [7]: no measurable binding

Molecule: CTFKKTN-OH [KKTN motif peptide from yeast Wbp1 (as used in ITC)]
Kd [9]: 81 µM

Molecule: RQEIISTKLL-OH [Emp47 KxKxx peptide without the -5 lysine (STKLL)]
Kd [12]: ~160 µM

Continued, values first:

binding by ITC (in words) [1]: no measurable binding
Molecule: KTKLL-CONH2 [amidated KTKLL peptide]

binding by ITC (in words) [1]: no measurable binding
Molecule: RRVV [RRVV peptide from p24]

binding by ITC (in words) [1]: no measurable binding
Molecule: KTSLL [KTKLL motif variant lacking the -3 lysine]

Kd [8]: 10 to 20 µM
Molecule: RQEIIKTKLL (also called KTKLL motif) [yeast Emp47 C-terminal KxKxx peptide RQEIIKTKLL]

binding result [10]: binds | binding result [11]: binds
B1: CTFKTKTN peptide (KxKxx motif, synthetic peptide used in crystallization) (peptide)
peptide: CTFKTKTN
notes: synthetic KxKxx peptide used in crystallization; Looks like the Wbp1-derived CTFKKTN with a threonine between the two lysines; source: synthetic peptide

Kd [13]: < 300 µM | Kd [12]: 6.8 µM | Kd [14]: < 300 µM | Kd [15]: < 300 µM
B2: KxKxx motif peptide from wild-type yeast Emp47 (RQEIIKTKLL) (peptide)
peptide: RQEIIKTKLL
notes: also called KTKLL motif; source: peptide

binding result [16]: binds
B3: CTFKKTN peptide (KKxx motif derived from yeast Wbp1), used in crystallization (peptide)
peptide: CTFKKTN
notes: KKxx motif derived from the C terminus of yeast Wbp1; The N-terminal cysteine may not be a residue of Wbp1 (surmise); also called CTFKKTN motif; source: peptide

Kd [12]: ~85 µM
Molecule: CTFKKTN-OH [Wbp1 KKTN motif peptide used for ITC]
